Data set [1] relates to rat incision pain model. The data set is described as follows: Analgesic efficacy in rat incision pain model (mechanical pain threshold). In kind it is in vivo, SD rats. Conditions: i.g./one dose; for Pain threshold: rat incision pain model, 5 h after administration; for Percent increase in threshold: vs. vehicle control. The protocol:
To evaluate the analgesic efficacy of the compounds of the present disclosure in inhibiting pain in rats of a rat incision pain model.
The compounds of Example 16 and Example 32.
Test animals: SD rats, purchased from Beijing Vital River Laboratory Animal Technology Co., Ltd. (license number: SCXK (Zhejiang) 2019-0001), weighing about 180 g on purchase.
Housing conditions: 5 animals/cage, a 12/12-hour light/dark cycle, a constant temperature of 23±1° C. with humidity at 50 to 60%, ad libitum access to food and water.
After acclimatization, the SD rats were grouped as follows:
(§1) Nine SD rats, weighing 170-190 g, were selected for this study. The mechanical pain threshold was measured using an electronic aesthesiometer. Then an incision pain surgery was performed. During the surgery, after the rats were anesthetized with Zoletil (Zoletil-50, 250 mg, diluted with normal saline to 50 mL after being dissolved, injected at a dose of 2 mL per 200 g of body weight), a 1 cm long incision was made in the middle of the plantar surface of the left hind paw using a No. 10 scalpel blade, cutting through the skin and fascia, and the incision was closed using 3-0 sterile silk sutures. The injured area was disinfected with penicillin, and the animals were returned to their original place to recover overnight. After the overnight recovery, oral gavage administration was performed. Five hours after administration (about 24 h after surgery), the mechanical pain threshold was measured using an electronic aesthesiometer.
Data were recorded using Excel statistical software: The averages were calculated using avg; the SD values were calculated using STDEV; the SEM values were calculated using STDEV/SQRT (the number of animals per group). Plotting was performed using GraphPad Prism software. Statistical analysis of the data was performed using one-way ANOVA and t-test.
Percent increase in threshold (%)=[(Gt−G0)/G0]×100(%), where Gt is the plantar pain threshold of the administration group, and G0 is the plantar pain threshold of the vehicle group.

Data set [2] can be described thus: Pharmacokinetic evaluation in SD rats (i.g.). Conditions: male, Sprague-Dawley (SD), rat, plasma, po, 2.0 mg/kg; for AUC(0-t): read-out: Area under curve AUC0-t; for CL/F: read-out: Clearance rate CL/F; for half-life: read-out: Half-life T½ (converted); for Cmax: read-out: Plasma concentration Cmax. Type of data set: in vivo. The protocol:
SD rats were used as test animals. After intragastric (i.g.) administration of the example compounds to SD rats, the plasma concentrations of the compounds at different time points were determined by the LC/MS/MS method. The pharmacokinetic behaviors of the compounds of the present disclosure in SD rats were studied, and their pharmacokinetic profiles were evaluated.
Compounds 16 and 32: Four male SD rats, provided by Vital River Laboratory Animal Technology Co., Ltd. The animals were fasted overnight and then intragastrically dosed.
Compound 38: Two male SD rats, provided by Zhejiang Vital River Laboratory Animal Technology Co., Ltd. The animals were fasted overnight and then intragastrically dosed.
Compounds 16 and 32: Certain amounts of the test compounds were weighed out, and 5% DMSO+5% tween 80+90% normal saline was added to prepare 0.2 mg/mL colorless clear solutions.
Compound 38: A certain amount of the test compound was weighed out, and 25% PEG400+75% (10% TPGS+1% HPMC K100LV) was added to prepare a 5 mg/mL colorless clear solution.
Compounds 16 and 32: The administration dose was 2 mg/kg, and the administration volume was 10.0 mL/kg.
Compound 38: The administration dose was 50 mg/kg, and the administration volume was 10.0 mL/kg.
0.2-mL blood samples were collected from the orbit before administration and 0.25, 0.5, 1.0, 2.0, 4.0, 6.0, 8.0, 11.0, and 24.0 h after administration, placed into EDTA-K2 anticoagulation test tubes, and centrifuged at 10,000 rpm for 1 min (4° C.), and the plasma was separated within 1 h and stored with dry ice before analysis. The procedures from the blood collection to the centrifugation were performed under ice-bath conditions. Access to food was given 2 h after administration.
Compounds 16 and 32: Determination of the plasma concentrations of the test compounds in SD rats after the compounds were administered at different concentrations: A 25-μL sample of the SD rat plasma collected at each time point after administration was taken, and 200 μL of acetonitrile containing an internal standard (verapamil, 100 ng/mL) was added. The mixture was vortexed and centrifuged at 3700 rpm for 10 min. 0.1 μL of the supernatant was taken for LC/MS/MS analysis.
Compound 38: Determination of the plasma concentration of the test compound in SD rats after the compound was administered at different concentrations: A 25-μL sample of the SD rat plasma collected at each time point after administration was taken, and 200 μL of acetonitrile containing an internal standard (dexamethasone, 100 ng/mL) was added. The mixture was vortexed and centrifuged at 4000 rpm for 15 min. 1 μL of the supernatant was taken for LC/MS/MS analysis.

The nature of data set [3]: Effect on body weight in rat incision pain model. Type of data set: in vivo, SD rats. The note with it: i.g./one dose. The protocol: as §1
The analgesic efficacy of the compound of Example 16 in the rat incision pain model is shown in FIG. 3 and Table 7, and its effect on body weight is shown in FIG. 4. The analgesic efficacy of the compound of Example 32 in the rat incision pain model is shown in FIG. 5 and Table 7, and its effect on body weight is shown in FIG. 6.

Several values for one entry are separate records, joined by “and”; a condition that tells them apart may be missing. Equal values may be shown once.

With `COc1c([C@H]2[C@H](C(=O)Nc3ccnc(/C(N)=N/O)c3)O[C@@](C)(C(F)(F)F)[C@H]2C)ccc(F)c1F` [Example 32], in data set [1] (30 mpk), the Pain threshold was 12.0 gf and 12.0 ± 0.9 gf; the “Percent increase in threshold” value turned out to be 15%. For the same compound, in data set [1] (100 mpk), the Pain threshold is 22.3 gf and 22.3 ± 1.3 gf; the “Percent increase in threshold” value is listed as 114%. In addition, in data set [1] (200 mpk), the Pain threshold was 22.4 gf and 22.4 ± 2.5 gf; the “Percent increase in threshold” value came to 114%. In data set [2], the bioavailability came out at 24.7%, the AUC(0-t) came to 321 ng·h/mL, the CL/F came to 96.9 mL/min/kg and the half-life is 2.6 h. For the same compound, the Cmax in data set [2] is 85.7 ng/mL. Moreover, the “Effect on body weight of rats” value in data set [3] was “did not influence the body weight of rats”.

Regarding `CO/N=C(\N)c1cc(NC(=O)[C@@H]2O[C@@](C)(C(F)(F)F)[C@@H](C)[C@H]2c2ccc(F)c(F)c2OC)ccn1` [Example 16], in data set [1] (50 mpk), the Pain threshold was 10.8 gf and 10.8 ± 0.5 gf; the “Percent increase in threshold” value is reported as 7%. Moreover, in data set [1] (100 mpk), the Pain threshold was 14.9 gf and 14.9 ± 1.5 gf; the “Percent increase in threshold” value came to 49%. Besides, in data set [1] (200 mpk), the Pain threshold is 22.3 gf and 22.3 ± 1.8 gf; the “Percent increase in threshold” value came out at 122%. Further, in data set [2], the bioavailability came out at 51.3%, the AUC(0-t) is 329 ng·h/mL, the CL/F was 101 mL/min/kg and the half-life was 9.1 h. The Cmax in data set [2] came out at 120 ng/mL. Also, the “Effect on body weight of rats” value in data set [3] was “did not influence the body weight of rats”.

The bioavailability is the share of a dose that reaches the circulation, judged against a reference dose that is usually intravenous. Usually half-life stands for how long it takes for the measured level to halve.

Source of the values: patent US20260055088A1, “HETEROCYCLIC COMPOUND, METHOD FOR PREPARING SAME, AND PHARMACEUTICAL USE THEREOF” (Jiangsu Hengrui Pharmaceuticals Co., Ltd., priority 2022, published 2026).
